Laboratory results reported in patent US20060069132A1, “Azolecarboxamide herbicides” (priority 2004, published 2006).

Tests used:
barnyardgrass [1] = assay: Test B pre-/postemergence herbicide test; type: in vivo, Echinochloa crus-galli; settings: for Plant response rating (0 to 100 scale), Barnyardgrass: 0 is no effect
Procedure, shortened: (§1)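 Formulation: non-phytotoxic solvent mix with surfactant. Timing: preemergence on seed and postemergence on 2–18 cm plants, applied concurrently. Readout after 13–15 d greenhouse: visual 0–100 control rating against controls.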

Surinam grass = assay: Test B pre-/postemergence herbicide test; type: in vivo, Urochloa decumbens; settings: for Plant response rating (0 to 100 scale), Surinam Grass: 0 is no effect
Procedure, shortened: (§2)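 Greenhouse pot assay with simultaneous preemergence (treated seed) and postemergence (2–18 cm seedlings) applications of surfactant-containing, non-phytotoxic solvent formulations. Response scored visually 13–15 days later on a 0–100 scale, 100 meaning complete control.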

cocklebur = assay: Test B pre-/postemergence herbicide test; type: in vivo, Xanthium strumarium; settings: for Plant response rating (0 to 100 scale), Cocklebur: 0 is no effect
Procedure, shortened: as §1

corn = assay: Test B pre-/postemergence herbicide test; type: in vivo, Zea mays; settings: for Plant response rating (0 to 100 scale), Corn: 0 is no effect
Procedure, shortened: as §2

large crabgrass = assay: Test B pre-/postemergence herbicide test; type: in vivo, Digitaria sanguinalis; settings: for Plant response rating (0 to 100 scale), Crabgrass, Large: 0 is no effect
Procedure, shortened: as §2

giant foxtail = assay: Test B pre-/postemergence herbicide test; type: in vivo, Setaria faberi; settings: for Plant response rating (0 to 100 scale), Foxtail, Giant: 0 is no effect
Procedure, shortened: as §2

lambsquarters = assay: Test B pre-/postemergence herbicide test; type: in vivo, Chenopodium album; settings: for Plant response rating (0 to 100 scale), Lambsquarters: 0 is no effect
Procedure, shortened: as §2

morningglory = assay: Test B pre-/postemergence herbicide test; type: in vivo, Ipomoea coccinea; settings: for Plant response rating (0 to 100 scale), Morningglory: 0 is no effect
Procedure, shortened: as §1

pigweed = assay: Test B pre-/postemergence herbicide test; type: in vivo, Amaranthus retroflexus; settings: for Plant response rating (0 to 100 scale), Pigweed: 0 is no effect
Procedure, shortened: as §2

velvetleaf = assay: Test B pre-/postemergence herbicide test; type: in vivo, Abutilon theophrasti; settings: for Plant response rating (0 to 100 scale), Velvetleaf: 0 is no effect, preemergence
Procedure, shortened: as §2

blackgrass = assay: Test B postemergence herbicide test; type: in vivo, Alopecurus myosuroides
Procedure, shortened: (§3)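 Scale 0–100: zero equals no visible effect, 100 complete control, judged by eye relative to controls. Timing: 13 to 15 days in greenhouse post-treatment. Growth stage at spraying: two leaves (paddy) or one to four leaves, 2–18 cm (postemergence).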

wheat = assay: Test B postemergence herbicide test; type: in vivo, Triticum aestivum; parameters: key to Wheat plant response rating: 0 = no effect, 100 = complete control
Procedure, shortened: (§4)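 Greenhouse test; postemergence application to plants at 1–4 leaves (2–18 cm); paddy species at 2 leaves; evaluated visually vs controls at 13–15 days; scale 0–100 (100 = complete control).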

wild oat = assay: Test B postemergence herbicide test; type: in vivo, Avena fatua
Procedure, shortened: as §4

rice [2] = assay: Test B flooded paddy test; type: in vivo, Oryza sativa; settings: 1000 g ai/ha, scale 0 to 100 (0 no effect, 100 complete control)
Procedure, shortened: as §4

[3] = system: small flower umbrella sedge; assay: Test B flooded paddy test; type: in vivo, Cyperus difformis; settings: 1000 g ai/ha, scale 0 to 100 (0 no effect, 100 complete control)
Procedure, shortened: as §3

ducksalad [4] = assay: Test B flooded paddy test; type: in vivo, Heteranthera limosa; settings: 1000 g ai/ha, scale 0 to 100 (0 no effect, 100 complete control)
Procedure, shortened: as §3

barnyardgrass [5] = assay: Test B flooded paddy test; type: in vivo, Echinochloa crus-galli; settings: 1000 g ai/ha, scale 0 to 100 (0 no effect, 100 complete control)
Procedure, shortened: as §3

rice [6] = assay: Test C flooded paddy test; type: in vivo, Oryza sativa; settings: for Plant response rating, Rice: 500 g ai/ha, visual rating after 12 to 14 days
Procedure: (§5) At the same time, plants selected from these crop and weed species and also winter barley (Hordeum vulgare L.), blackgrass (Alopecurus myosuroides Huds.), canarygrass (Phalaris minor Retz.), chickweed (Stellaria media (L.) Vill.), downy bromegrass (Bromus tectorum L.), green foxtail (Setaria viridis (L.) Beauv.), Italian ryegrass (Lolium multiflorum Lam.), wheat (Triticum aestivum L.), wild oat (Avenafatua L.) and windgrass (Apera spica-venti (L.) Beauv.) were treated with postemergence applications of some of the test chemicals formulated in the same manner. Plants ranged in height from 2 to 18 cm (1- to 4-leaf stage) for postemergence treatments. Plant species in the flooded paddy test consisted of rice (Oryza sativa), smallflower umbrella sedge (Cyperus difformis L.), ducksalad (Heteranthera limosa (Sw.) Willd.) and barnyardgrass (Echinochloa crus-galli (L.) Beauv.) grown to the 2-leaf stage for testing. Treated plants and controls were maintained in a greenhouse for 12 to 14 days, after which time all species were compared to controls and visually evaluated. Plant response ratings, summarized in Table C, are based on a scale of 0 to 100 where 0 is no effect and 100 is complete control. A dash (-) response means no test result.

[7] = system: smallflower umbrella sedge; assay: Test C flooded paddy test; type: in vivo, Cyperus difformis; settings: for Plant response rating, Sedge, Umbrella: 500 g ai/ha, visual rating after 12 to 14 days
Procedure: as §5

ducksalad [8] = assay: Test C flooded paddy test; type: in vivo, Heteranthera limosa; settings: for Plant response rating, Ducksalad: 500 g ai/ha, visual rating after 12 to 14 days
Procedure: as §5

barnyardgrass [9] = assay: Test C flooded paddy test; type: in vivo, Echinochloa crus-galli; settings: for Plant response rating, Barnyardgrass: 500 g ai/ha, visual rating after 12 to 14 days
Procedure: as §5

[10] = 125 g ai/ha, 100 is complete control, preemergence
[11] = Postemergence, 500 g ai/ha, scale 0 (no effect) to 100 (complete control)
[12] = postemergence, 125 g ai/ha, scale 0 to 100
[13] = 125 g ai/ha, 100 is complete control
[14] = 125 g ai/ha, scale 0 to 100 (0 no effect, 100 complete control)
[15] = 250 g ai/ha, scale of 0 to 100, 0 is no effect, 100 is complete control
[16] = scale 0 to 100 (0 no effect, 100 complete control)
[17] = 62 g ai/ha, scale 0 to 100 (0 no effect, 100 complete control)
[18] = 125 g ai/ha, visual rating, scale 0 (no effect) to 100 (complete control), postemergence
[19] = 500 g ai/ha, visual rating, 0 = no effect, 100 = complete control, preemergence
[20] = postemergence, 500 g ai/ha, scale 0 to 100, 0 is no effect, 100 is complete control

CCc1nn(C(C)C)nc1C(=S)Nc1cccc(C(=S)N(C)C)c1 [Compound 410]
65: Plant response rating, Barnyardgrass (barnyardgrass [9]; [16])
10: Cocklebur plant response rating (cocklebur; [11]) | Corn plant response rating (corn; [11]) | Foxtail, Giant plant response rating (giant foxtail; [12]) | Blackgrass plant response rating (blackgrass; [12]) | Wheat plant response rating (wheat; [11]) | Oat, Wild plant response rating (wild oat; [11])
90: Plant response rating (0 to 100 scale), Crabgrass, Large (large crabgrass; [10]) | Wheat plant response rating (wheat; 500 g ai/ha, scale 0 to 100, 0 no effect, 100 complete control, preemergence)
85: Plant response rating, Sedge, Umbrella [7, 16]
80: Morningglory plant response rating (morningglory; [11]) | Sedge, Umbrella plant response rating [3] | Ducksalad plant response rating (ducksalad [4]) | Barnyardgrass plant response rating (barnyardgrass [5]) | Sedge, Umbrella plant response rating [7, 15]
40: Rice plant response rating (rice [6]; [14]) | Ducksalad plant response rating (ducksalad [8]; [14])
100: Plant response rating (0 to 100 scale), Barnyardgrass (barnyardgrass [1]; [10]) | Plant response rating (0 to 100 scale), Lambsquarters (lambsquarters; [10])
30: Plant response rating (0 to 100 scale), Foxtail, Giant (giant foxtail; [10]) | Plant response rating (0 to 100 scale), Morningglory (morningglory; [10]) | Plant response rating (0 to 100 scale), Velvetleaf (velvetleaf; [13]) | Blackgrass plant response rating (blackgrass; [11]) | Ducksalad plant response rating (ducksalad [8]; 62 g ai/ha, scale 0 to 100)
20: Crabgrass, Large plant response rating (large crabgrass; [11]) | Foxtail, Giant plant response rating (giant foxtail; [11]) | Lambsquarters plant response rating (lambsquarters; [12]) | Rice plant response rating (rice [6]; 62 g ai/ha, scale 0 to 100) | Barnyardgrass plant response rating (barnyardgrass [9]; [14])
0: Barnyardgrass plant response rating (barnyardgrass [1]; Postemergence, 125 g ai/ha, scale 0 (no effect) to 100 (complete control)) | Barnyardgrass plant response rating (barnyardgrass [1]; [11]) | Surinam Grass plant response rating (Surinam grass; [11]) | Surinam Grass plant response rating (Surinam grass; [12]) | Plant response rating (0 to 100 scale), Cocklebur (cocklebur; [10]) | Cocklebur plant response rating (cocklebur; [12]) | Plant response rating (0 to 100 scale), Corn (corn; [10]) | Corn plant response rating (corn; [12]) | Crabgrass, Large plant response rating (large crabgrass; [12]) | Morningglory plant response rating (morningglory; [12]) | Pigweed plant response rating (pigweed; [12]) | Velvetleaf plant response rating (velvetleaf; [11]) | Velvetleaf plant response rating (velvetleaf; [12]) | Wheat plant response rating (wheat; [12]) | Oat, Wild plant response rating (wild oat; [12]) | Barnyardgrass plant response rating (barnyardgrass [9]; [17])
75: Sedge, Umbrella plant response rating [7, 14]
70: Lambsquarters plant response rating (lambsquarters; [11]) | Pigweed plant response rating (pigweed; [11]) | Sedge, Umbrella plant response rating ([7]; 62 g ai/ha, scale 0 to 100)
60: Plant response rating (0 to 100 scale), Surinam Grass (Surinam grass; [10]) | Plant response rating (0 to 100 scale), Pigweed (pigweed; [10]) | Rice plant response rating (rice [2]) | Rice plant response rating (rice [6]; [15]) | Plant response rating, Rice (rice [6]; [16]) | Ducksalad plant response rating (ducksalad [8]; [15]) | Plant response rating, Ducksalad (ducksalad [8]; [16]) | Barnyardgrass plant response rating (barnyardgrass [9]; [15])

CCOC(=O)c1ccc(F)c(NC(=O)C2CN(C(C)(C)C)N=C2CC)c1 (racemic) [Compound 335]
65: Plant response rating, Barnyardgrass (barnyardgrass [9]; [16])
35: Ducksalad plant response rating (ducksalad [8]; [14])
50: Plant response rating (0 to 100 scale), Barnyardgrass (barnyardgrass [1]; [10]) | Barnyardgrass plant response rating (barnyardgrass [1]; [20]) | Plant response rating, Corn (corn; [19]) | Plant response rating (0 to 100 scale), Crabgrass, Large (large crabgrass; [10]) | Ducksalad plant response rating (ducksalad [8]; [15])
20: Corn plant response rating (corn; [20]) | Foxtail, Giant plant response rating (giant foxtail; [18]) | Pigweed plant response rating (pigweed; [18]) | Wheat plant response rating (wheat; [20]) | Oat, Wild plant response rating (wild oat; [18])
70: Cocklebur plant response rating (cocklebur; [20]) | Pigweed plant response rating (pigweed; [20]) | Rice plant response rating (rice [2]) | Plant response rating, Ducksalad (ducksalad [8]; [16])
95: Plant response rating, Sedge, Umbrella [7, 16]
25: Rice plant response rating (rice [6]; 62 g ai/ha, scale 0 to 100) | Rice plant response rating (rice [6]; [14]) | Barnyardgrass plant response rating (barnyardgrass [9]; [14])
0: Barnyardgrass plant response rating (barnyardgrass [1]; [18]) | Plant response rating (0 to 100 scale), Cocklebur (cocklebur; [10]) | Plant response rating (0 to 100 scale), Lambsquarters (lambsquarters; [10]) | Plant response rating (0 to 100 scale), Morningglory (morningglory; [10]) | Plant response rating (0 to 100 scale), Pigweed (pigweed; [10]) | Ducksalad plant response rating (ducksalad [8]; 62 g ai/ha, scale 0 to 100)
10: Surinam Grass plant response rating (Surinam grass; [18]) | Cocklebur plant response rating (cocklebur; [18]) | Plant response rating, Cocklebur (cocklebur; [19]) | Corn plant response rating (corn; [18]) | Crabgrass, Large plant response rating (large crabgrass; [18]) | Lambsquarters plant response rating (lambsquarters; [18]) | Plant response rating, Lambsquarters (lambsquarters; [19]) | Morningglory plant response rating (morningglory; [18]) | Plant response rating, Morningglory (morningglory; [19]) | Plant response rating, Pigweed (pigweed; [19]) | Blackgrass plant response rating (blackgrass; [18]) | Wheat plant response rating (wheat; [18]) | Barnyardgrass plant response rating (barnyardgrass [9]; [17])
80: Sedge, Umbrella plant response rating [3]
100: Plant response rating, Crabgrass, Large (large crabgrass; [19])
55: Rice plant response rating (rice [6]; [15]) | Plant response rating, Rice (rice [6]; [16])
40: Plant response rating, Surinam Grass (Surinam grass; [19]) | Crabgrass, Large plant response rating (large crabgrass; [20]) | Foxtail, Giant plant response rating (giant foxtail; [20]) | Morningglory plant response rating (morningglory; [20]) | Plant response rating (0 to 100 scale), Velvetleaf (velvetleaf; [13]) | Oat, Wild plant response rating (wild oat; [20]) | Barnyardgrass plant response rating (barnyardgrass [9]; [15])
45: Sedge, Umbrella plant response rating ([7]; 62 g ai/ha, scale 0 to 100)
85: Sedge, Umbrella plant response rating [7, 14]
30: Plant response rating (0 to 100 scale), Surinam Grass (Surinam grass; [10]) | Surinam Grass plant response rating (Surinam grass; [20]) | Plant response rating (0 to 100 scale), Corn (corn; [10]) | Lambsquarters plant response rating (lambsquarters; [20]) | Velvetleaf plant response rating (velvetleaf; [18]) | Blackgrass plant response rating (blackgrass; [20])
90: Plant response rating, Foxtail, Giant (giant foxtail; [19]) | Ducksalad plant response rating (ducksalad [4]) | Sedge, Umbrella plant response rating [7, 15]
60: Plant response rating, Barnyardgrass (barnyardgrass [1]; [19]) | Plant response rating (0 to 100 scale), Foxtail, Giant (giant foxtail; [10]) | Velvetleaf plant response rating (velvetleaf; [20]) | Barnyardgrass plant response rating (barnyardgrass [5])
